Results published in patent US20040132107A1, “Functional assay for g-protein-coupled receptors based on insect cells” (priority 2003, published 2004).

Columns and labels:
human Histamine H1 GPCR = biological target: T1, human Histamine H1 GPCR (Homo sapiens, UniProt P35367); test: HH1R insect-based assay cell lines (Sf9, transiently transfected), fractional luminescence
T1 construct: expressed in transfected cells; host or cells: Sf9, transiently transfected

[1] = biological target: human beta2 Adrenergic receptor (Homo sapiens, UniProt P07550); test: B2AR insect-based assay cell lines (Sf9, transiently transfected), fractional luminescence; settings: FIG. 17
Chain of human beta2 Adrenergic receptor (P07550 whole entry): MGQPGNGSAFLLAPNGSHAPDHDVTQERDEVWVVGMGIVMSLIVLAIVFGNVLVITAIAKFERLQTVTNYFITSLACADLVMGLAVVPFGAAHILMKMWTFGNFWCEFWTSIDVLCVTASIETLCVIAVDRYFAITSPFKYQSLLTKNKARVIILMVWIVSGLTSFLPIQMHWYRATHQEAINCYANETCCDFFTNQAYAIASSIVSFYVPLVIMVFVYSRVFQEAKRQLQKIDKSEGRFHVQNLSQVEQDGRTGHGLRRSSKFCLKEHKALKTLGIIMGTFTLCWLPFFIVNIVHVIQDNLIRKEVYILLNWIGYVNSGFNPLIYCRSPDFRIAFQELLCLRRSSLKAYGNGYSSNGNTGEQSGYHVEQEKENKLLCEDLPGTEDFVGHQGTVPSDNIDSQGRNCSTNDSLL

human Dopamine D1A GPCR = human Dopamine D1A GPCR (Homo sapiens, UniProt P21728); test: DADR insect-based assay cell lines (Sf9; Dopamine D1A, Galpha16, aequorin), fractional luminescence
Chain of human Dopamine D1A GPCR (P21728 whole entry): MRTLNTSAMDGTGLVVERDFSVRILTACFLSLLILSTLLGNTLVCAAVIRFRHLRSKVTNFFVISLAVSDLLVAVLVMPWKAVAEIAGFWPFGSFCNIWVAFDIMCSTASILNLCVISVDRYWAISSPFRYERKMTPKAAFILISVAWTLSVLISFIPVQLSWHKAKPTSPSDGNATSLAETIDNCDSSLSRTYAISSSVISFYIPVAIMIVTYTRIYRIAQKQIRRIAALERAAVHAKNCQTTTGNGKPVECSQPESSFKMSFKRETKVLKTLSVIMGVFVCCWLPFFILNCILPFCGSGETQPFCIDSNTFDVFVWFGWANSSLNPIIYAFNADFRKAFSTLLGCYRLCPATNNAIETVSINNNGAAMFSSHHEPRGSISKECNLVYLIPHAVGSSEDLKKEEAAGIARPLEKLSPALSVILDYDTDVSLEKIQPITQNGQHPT
Description: In one embodiment, the assay system of the invention was implemented using the human dopamine D1 (hDD1) GPCR, which is normally coupled to a Gs-type G protein.
To assay GPCR antagonists required a modified protocol. […] Light output was monitored for 75 seconds. […] Data analysis was performed as described above. An optional 10 second rocking step was added after each individual well was measured, to ensure that the insect-based assay cells arrayed in the plate stayed in suspension
Agonist and antagonist concentration-response curves were obtained by plotting graphs of A/(A+L) on the Y-axis versusLOG10 of ligand concentration (Molar) on the X-axis. Curve fitting was performed using the software package GraphPad Prism (GraphPad Software, Inc., San Diego, Calif., USA). The 3- or 4-Parameter Logistic equations were used for non-linear regression, and to acquire derived values (EC50 and Hill Slope).

human 5-HT1A GPCR = biological target: T2, human 5-HT1A GPCR (Homo sapiens, UniProt P08908); settings: FIG. 16
T2 sequence (P08908 1-422): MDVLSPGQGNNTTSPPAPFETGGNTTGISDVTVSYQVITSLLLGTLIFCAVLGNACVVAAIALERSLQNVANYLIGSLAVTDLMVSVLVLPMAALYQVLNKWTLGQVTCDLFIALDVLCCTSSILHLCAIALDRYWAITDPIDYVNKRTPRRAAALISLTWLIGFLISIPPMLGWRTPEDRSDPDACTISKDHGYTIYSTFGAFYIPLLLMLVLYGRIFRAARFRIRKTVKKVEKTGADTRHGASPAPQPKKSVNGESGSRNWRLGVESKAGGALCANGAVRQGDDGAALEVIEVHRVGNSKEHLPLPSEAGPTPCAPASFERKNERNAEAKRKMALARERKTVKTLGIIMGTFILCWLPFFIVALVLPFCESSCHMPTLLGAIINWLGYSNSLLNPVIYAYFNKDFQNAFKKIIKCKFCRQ

human 5-HT2A GPCR = human 5-HT2A GPCR (Homo sapiens, UniProt P28223); test: 5H2A insect-based assay cell lines (Sf9, transiently transfected), fractional luminescence; settings: increasing concentrations of agonist; FIG. 14
Chain of human 5-HT2A GPCR (P28223 whole entry): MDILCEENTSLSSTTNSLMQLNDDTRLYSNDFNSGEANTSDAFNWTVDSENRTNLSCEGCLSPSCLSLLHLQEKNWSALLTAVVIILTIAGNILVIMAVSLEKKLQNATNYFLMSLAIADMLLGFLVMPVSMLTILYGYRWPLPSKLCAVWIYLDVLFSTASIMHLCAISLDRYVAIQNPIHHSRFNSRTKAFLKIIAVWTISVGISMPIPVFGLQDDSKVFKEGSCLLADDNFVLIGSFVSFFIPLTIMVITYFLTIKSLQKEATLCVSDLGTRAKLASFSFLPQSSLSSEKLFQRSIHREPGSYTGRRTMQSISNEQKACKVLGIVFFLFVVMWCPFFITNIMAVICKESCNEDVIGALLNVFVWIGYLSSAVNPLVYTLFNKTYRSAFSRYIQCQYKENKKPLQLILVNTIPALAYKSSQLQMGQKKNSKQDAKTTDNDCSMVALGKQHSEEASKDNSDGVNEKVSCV

[2] = biological target: T3, human Thromboxane A2 GPCR (Homo sapiens, UniProt P21731); test: TA2R insect-based assay cell lines (Sf9, transiently transfected), fractional luminescence
T3 construct: expressed in transfected cells; host or cells: Sf9, transiently transfected
T3 sequence (P21731 1-343): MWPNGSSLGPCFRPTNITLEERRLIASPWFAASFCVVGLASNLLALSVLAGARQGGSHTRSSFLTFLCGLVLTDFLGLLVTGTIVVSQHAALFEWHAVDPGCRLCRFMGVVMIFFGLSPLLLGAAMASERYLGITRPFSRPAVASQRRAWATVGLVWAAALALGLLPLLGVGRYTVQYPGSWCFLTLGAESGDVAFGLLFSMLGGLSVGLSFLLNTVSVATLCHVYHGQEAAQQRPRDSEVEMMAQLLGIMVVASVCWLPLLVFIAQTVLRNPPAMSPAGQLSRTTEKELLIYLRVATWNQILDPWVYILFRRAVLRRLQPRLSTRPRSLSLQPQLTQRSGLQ
Description: Light output was monitored for 70 seconds. […] Data analysis was performed as described above
Agonist and antagonist concentration-response curves were obtained by plotting graphs of A/(A+L) on the Y-axis versusLOG10 of ligand concentration (Molar) on the X-axis.Curve fitting was performed using the software package GraphPad Prism (GraphPad Software, Inc., San Diego, Calif., USA). The 3- or 4-Parameter Logistic equations were used for non-linear regression, and to acquire derived values (EC50 and Hill Slope).

[3] = 100 microM, cells expressing all three assay components

T1 sequence (P35367 whole entry): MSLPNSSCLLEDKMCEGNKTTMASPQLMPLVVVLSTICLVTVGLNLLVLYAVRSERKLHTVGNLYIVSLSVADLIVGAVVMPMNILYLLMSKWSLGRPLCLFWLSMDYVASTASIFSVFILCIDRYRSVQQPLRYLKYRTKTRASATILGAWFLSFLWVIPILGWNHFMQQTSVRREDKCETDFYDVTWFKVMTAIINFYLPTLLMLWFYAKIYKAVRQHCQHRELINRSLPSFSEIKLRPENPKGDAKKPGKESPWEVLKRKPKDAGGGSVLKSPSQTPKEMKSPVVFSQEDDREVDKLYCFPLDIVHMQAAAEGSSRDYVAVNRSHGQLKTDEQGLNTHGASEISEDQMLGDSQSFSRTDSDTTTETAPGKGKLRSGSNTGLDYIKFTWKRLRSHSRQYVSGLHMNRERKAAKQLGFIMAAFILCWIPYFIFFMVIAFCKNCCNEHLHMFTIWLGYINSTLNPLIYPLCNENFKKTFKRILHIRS

SMILES: NCCc1c[nH]cn1 [histamine]
- agonist concentration-activity curve (human Histamine H1 GPCR): characteristic sigmoidal agonist concentration-activity curve
- fractional response to histamine in the absence of Galpha16 (human Histamine H1 GPCR): reduced in the absence of Galpha16, it is still significant
- response in the absence of the Histamine H1 receptor (human Histamine H1 GPCR): no response

SMILES: NC[C@H](O)c1ccc(O)c(O)c1 [nor-epinephrine]
- response of assay cells to agonist [1, 3]: respond
- agonist response in the absence of Galpha16 ([1]; cells without Galpha16): reduced in magnitude

SMILES: Cc1ccc(/C(=C\CN2CCCC2)c2ccccn2)cc1.Cl [triprolidone hydrochloride]
- block of histamine agonist activity by pre-incubation with antagonist (human Histamine H1 GPCR; FIG. 12): can be blocked
- antagonist concentration-activity curve (human Histamine H1 GPCR; varying antagonist against fixed histamine at 100 microM, FIG. 12): Characteristic sigmoidal antagonist concentration-activity curves

SMILES: OCCN1CCN(CC/C=C2/c3ccccc3Sc3ccc(C(F)(F)F)cc32)CC1 [cis-Flupenthixol]
- block of dopamine agonist activation by pre-incubation with antagonist (human Dopamine D1A GPCR; pre-incubation with antagonist, then dopamine, FIGS. 4 and 6): can be blocked
- antagonist concentration-activity curve (human Dopamine D1A GPCR; varying antagonist against fixed dopamine at 100 microM, FIG. 6): Characteristic sigmoidal antagonist concentration-activity curves

SMILES: CC(C)NCC(O)COc1cccc2ccccc12 (racemic) [DL-propranalol]
- effect of antagonist pre-incubation on activation by serotonin (human 5-HT1A GPCR; antagonist 10 microM, then serotonin): prevents subsequent activation

SMILES: NCCc1c[nH]c2ccc(O)cc12 [serotonin]
- response of assay cells to agonist (human 5-HT1A GPCR; [3]): respond
- agonist concentration-activity curve (human 5-HT2A GPCR): characteristic sigmoidal agonist concentration-activity curve

SMILES: CCCCC[C@H](O)/C=C/[C@H]1[C@@H]2CO[C@@H](C2)[C@@H]1C/C=C\CCCC(=O)O [U44069]
- agonist concentration-activity curve ([2]; increasing concentrations of agonist, FIG. 9): characteristic sigmoidal agonist concentration-activity curve

SMILES: O=C(O)CCC/C=C\C[C@@H]1[C@H](CNNC(=O)Nc2ccccc2)[C@H]2CC[C@@H]1O2 [SQ29,548]
- block of U44069 agonist activity by pre-incubation with antagonist ([2]; FIG. 10): can be blocked
- antagonist concentration-activity curve ([2]; varying antagonist against fixed U44069 at 10 microM, FIG. 10): Characteristic sigmoidal antagonist concentration-activity curves

SMILES: Oc1cc2c(cc1O)C(c1ccccc1)CNCC2 (stereo not shown) [SKF38393]
- agonist concentration-activity curve (human Dopamine D1A GPCR; increasing concentrations of agonist, FIG. 5): characteristic sigmoidal agonist concentration-activity curve
